Source: paper PMC9804084, “Multiple drug transporters contribute to the brain transfer of levofloxacin” (CNS Neuroscience & Therapeutics, 2022)
Like-named read-outs stand apart in the source and are kept apart here.

Assay: In vivo microdialysis pharmacokinetics of LVFX without transporter inhibitors
Parameters: species or system rat
Conditions: for AUC(0-inf) / Cmax / AUC(0-t) / Tmax / Kp / MRT / half-life: rat; for AUC(0-inf) / Cmax / AUC(0-t) / Tmax / MRT / half-life: iv; for AUC(0-inf) / Cmax / AUC(0-t) / MRT / half-life: 50 mg/kg, mean ± SD; for AUC(0-t): read-out: AUC0–180 (converted); for Kp: intravenous, LVFX 50 mg/kg tail vein, no inhibitor
Method: On the day of surgery, rats were anesthetized using inhaled isoflurane via a facemask. The rats were placed in a stereotaxic frame (Gene&I), and the body temperature was maintained with a homoeothermic blanket set at 37°C. A midline incision was made to expose the skull. According to the Paxinos and Watson atlas, two microdialysis intracerebral guide cannulae (Eicom Co.) were implanted into the hippocampus CA1 region (Hp‐CA1 coordinates: AP −4.16 mm; ML −2.2 mm; DV −2.9 mm) and lateral ventricle (LV coordinates: AP −1.4 mm; ML +2.2 mm; DV −3.4 mm). Fixed to the skull using a screw and dental cement. After 3 days of recovery, the rats were anesthetized with isoflurane again. An intravascular probe (TP‐100‐20; 20 mm, Eicom Co.) was implanted into the jugular vein toward the right atrium. After the blood microdialysis probe was positioned within the jugular vein, the pipeline was connected to perfuse with ACD solution (citric acid 3.5 mM; sodium citrate 7.5 mM; dextrose 13.6 mM) at a flow rate of […], and the Hamilton microinjection pump was used for continuous perfusion. After stopping isoflurane inhalation, the rats were allowed to wake up naturally on the homoeothermic blanket. The awake rats were placed in a device that allowed them to move freely. Animals were allowed to recover for an additional 24 h.
All microdialysate concentrations (C m) from the hippocampal ECF and lateral ventricle CSF were converted to the unbound drug concentration (C u) at the target site using the following formula: C u = C m/R dial.
A total of 32 rats were randomly divided into the following groups: • Control group, N = 12: vehicle solution + LVFX (50 mg/kg). • TAR group, N = 5: Tariquidar (8 mg/kg) + LVFX (50 mg/kg). • Ko143 group, N = 5: Ko143 (15 mg/kg) + LVFX (50 mg/kg). • MK571 group, N = 5: MK571 (20 mg/kg) + LVFX (50 mg/kg). • PRO group, N = 5: Probenecid (50 mg/kg) + LVFX (50 mg/kg).
Given that the solvents of intervention drugs were different, the control group was subdivided into four subgroups (n = 3). According to the preparation method of the transporter regulator, an equal volume of solvent was used as the control.
Levofloxacin was freshly dissolved in isotonic saline and administered via tail vein injection. Thirty minutes before LVFX administration, the intervention drugs of each group were injected intraperitoneally. To reduce the possible effect of solvents on BBB or BCSFB permeability of LVFX, we prioritized water as the solvent. However, Tariquidar and Ko143 are insoluble in water, and a cosolvent must be used to prepare agents that animals can tolerate. According to the different physicochemical properties of these four inhibitors, the preparation of each transporter inhibitor solution in this experiment was as follows. • P‐glycoprotein (P‐gp) inhibitor Tariquidar[22]: Tariquidar was freshly dissolved in DMSO to 8 mg/ml and then diluted to 4 mg/ml with a solution containing 10% Tween‐80, 25% PEG300, and 65% sterile water. • Breast cancer resistance protein (BCRP) inhibitor Ko143[23]: Ko143 was freshly dissolved in DMSO to 15 mg/ml and then diluted to 7.5 mg/ml with a solution containing 10% Tween‐80, 25% PEG300, and 65% sterile water. • Multidrug resistance‐associated proteins (MRPs) inhibitor MK571[24]: MK571 sodium salt hydrate was dissolved in 1.25% (w/v) aq sodium hydrogen carbonate (NaHCO3) solution to obtain a concentration of 10 mg/ml. • Organic anion transporters (OATs) inhibitor probenecid[25]: Probenecid was dissolved in NaOH (pH = 9.0–9.2) alkalized physiological saline to obtain a concentration of 25 mg/ml.
The pipelines where the blood and brain probes were installed were perfused at the speed of 2 μl/min with ACD solution and ACSF, respectively. Two brain probes were inserted into guide cannulas of the target site and allowed to equilibrate for 1 h. Subsequently, the rats were treated according to their corresponding groups in the device where they could move freely.

[1] = CSF (lateral ventricle microdialysate), CSF, Group 1: vehicle solution of Tariquidar/Ko143 + LVFX 50 mg/kg, n=3
[2] = CSF (lateral ventricle microdialysate), CSF, Group 2: 1.25% NaHCO3 solution + LVFX 50 mg/kg, n=3
[3] = CSF (lateral ventricle microdialysate), CSF, Group 4: LVFX 50 mg/kg alone, n=3
[4] = CSF (lateral ventricle microdialysate), pH 9, CSF, Group 3: physiological saline alkalinized with NaOH (pH 9.0–9.2) + LVFX 50 mg/kg, n=3
[5] = CSF, CSF, Group 1: vehicle solution of Tariquidar/Ko143 + LVFX 50 mg/kg, n=3
[6] = CSF, CSF, Group 2: 1.25% NaHCO3 solution + LVFX 50 mg/kg, n=3
[7] = CSF, CSF, Group 4: LVFX 50 mg/kg alone, n=3
[8] = CSF, pH 9, CSF, Group 3: physiological saline alkalinized with NaOH (pH 9.0–9.2) + LVFX 50 mg/kg, n=3
[9] = blood (microdialysate, unbound), blood, Group 1: vehicle solution of Tariquidar/Ko143 + LVFX 50 mg/kg, n=3
[10] = blood (microdialysate, unbound), blood, Group 2: 1.25% NaHCO3 solution + LVFX 50 mg/kg, n=3
[11] = blood (microdialysate, unbound), blood, Group 4: LVFX 50 mg/kg alone, n=3
[12] = blood (microdialysate, unbound), pH 9, blood, Group 3: physiological saline alkalinized with NaOH (pH 9.0–9.2) + LVFX 50 mg/kg, n=3
[13] = blood, blood, control group, vehicle + LVFX 50 mg/kg tail vein, N=12
[14] = brain ECF, brain ECF, Group 1: vehicle solution of Tariquidar/Ko143 + LVFX 50 mg/kg, n=3
[15] = brain ECF, brain ECF, Group 2: 1.25% NaHCO3 solution + LVFX 50 mg/kg, n=3
[16] = brain ECF, brain ECF, Group 4: LVFX 50 mg/kg alone, n=3
[17] = brain ECF, pH 9, brain ECF, Group 3: physiological saline alkalinized with NaOH (pH 9.0–9.2) + LVFX 50 mg/kg, n=3
[18] = hippocampal brain ECF (microdialysate, unbound), hippocampal brain ECF, control group, vehicle + LVFX 50 mg/kg tail vein, N=12
[19] = lateral ventricle CSF (microdialysate, unbound), lateral ventricle CSF, control group, vehicle + LVFX 50 mg/kg tail vein, N=12

C[C@H]1COc2c(N3CCN(C)CC3)c(F)cc3c(=O)c(C(=O)O)cn1c23 [LVFX, Levofloxacin]
T max (CSF, Group 2: 1.25% NaHCO3 solution + LVFX 50 mg/kg, n=3): 15 min | T max (CSF, Group 4: LVFX 50 mg/kg alone, n=3): 15 min | T max (blood, Group 2: 1.25% NaHCO3 solution + LVFX 50 mg/kg, n=3): 15 min | T max (blood, control group, vehicle + LVFX 50 mg/kg tail vein, N=12): 15 min | T max (brain ECF, Group 2: 1.25% NaHCO3 solution + LVFX 50 mg/kg, n=3): 15 min | T max (brain ECF, Group 4: LVFX 50 mg/kg alone, n=3): 15 min | AUC(0-inf) [1]: 4080 ng·h/mL | Cmax [1]: 3540 ± 150 ng/mL | AUC(0-t) [1]: 3810 ng·h/mL | AUC(0-inf) [2]: 4490 ng·h/mL | Cmax [2]: 3860 ± 320 ng/mL | AUC(0-t) [2]: 4140 ng·h/mL | Cmax [3]: 3480 ± 370 ng/mL | AUC(0-t) [3]: 4330 ng·h/mL | AUC(0-inf) [4]: 4950 ng·h/mL | Cmax [4]: 3700 ± 140 ng/mL | AUC(0-t) [4]: 4490 ng·h/mL | Tmax [1]: 15 min | Tmax (CSF (lateral ventricle microdialysate), CSF, Group 3: physiological saline alkalinized with NaOH (pH 9.0–9.2) + LVFX 50 mg/kg, n=3): 15 min | Kp (CSF / blood (unbound, microdialysate), AUCu,CSF/AUCu,blood, control group, N=12, read-out: K p,uu,CSF): 0.412 ± 0.024 | MRT [5]: 70.8 min | half-life [5]: 38 ± 11.9 min | MRT [6]: 74 min | half-life [6]: 50.6 ± 8.78 min | AUC(0-inf) [7]: 4680 ng·h/mL | MRT [7]: 76.7 min | half-life [7]: 42.2 ± 5.6 min | MRT [8]: 81.8 min | half-life [8]: 45.8 ± 19.7 min | AUC(0-inf) [9]: 11000 ng·h/mL | MRT [9]: 63.9 min | half-life [9]: 40.5 ± 5.68 min | AUC(0-t) [9]: 10300 ng·h/mL | AUC(0-inf) [10]: 11700 ng·h/mL | MRT [10]: 73.9 min | half-life [10]: 50.5 ± 9.53 min | AUC(0-t) [10]: 10700 ng·h/mL | AUC(0-inf) [11]: 11700 ng·h/mL | MRT [11]: 86.2 min | half-life [11]: 60.6 ± 11.2 min | AUC(0-t) [11]: 10200 ng·h/mL | AUC(0-inf) [12]: 10100 ng·h/mL | MRT [12]: 69.3 min | half-life [12]: 45.3 ± 6.27 min | AUC(0-t) [12]: 9340 ng·h/mL | Tmax [11]: 15 min | Cmax (blood, blood, Group 1: vehicle solution of Tariquidar/Ko143 + LVFX 50 mg/kg, n=3): 10400 ± 1040 ng/mL | Cmax (blood, blood, Group 2: 1.25% NaHCO3 solution + LVFX 50 mg/kg, n=3): 10700 ± 320 ng/mL | Cmax (blood, blood, Group 4: LVFX 50 mg/kg alone, n=3): 9970 ± 590 ng/mL | AUC(0-inf) [13]: 11100 ng·h/mL | Cmax [13]: 10200 ± 700 ng/mL | MRT [13]: 73.3 min | half-life [13]: 49.2 ± 10.6 min | AUC(0-t) [13]: 10200 ng·h/mL | Cmax (blood, pH 9, blood, Group 3: physiological saline alkalinized with NaOH (pH 9.0–9.2) + LVFX 50 mg/kg, n=3): 9780 ± 390 ng/mL | Kp (brain ECF / blood, AUCu,ECF/AUCu,blood, control group, N=12, read-out: K p,uu,ECF): 0.34 ± 0.017 | AUC(0-inf) [14]: 3730 ng·h/mL | Cmax [14]: 2920 ± 520 ng/mL | MRT [14]: 74.1 min | half-life [14]: 39.8 ± 14.3 min | AUC(0-t) [14]: 3480 ng·h/mL | AUC(0-inf) [15]: 3600 ng·h/mL | Cmax [15]: 2720 ± 150 ng/mL | MRT [15]: 84.1 min | half-life [15]: 53.4 ± 9.24 min | AUC(0-t) [15]: 3240 ng·h/mL | AUC(0-inf) [16]: 3940 ng·h/mL | Cmax [16]: 3050 ± 760 ng/mL | MRT [16]: 80.9 min | half-life [16]: 49 ± 17.9 min | AUC(0-t) [16]: 3600 ng·h/mL | AUC(0-inf) [17]: 3820 ng·h/mL | Cmax [17]: 2540 ± 170 ng/mL | MRT [17]: 84 min | half-life [17]: 49.8 ± 20.7 min | AUC(0-t) [17]: 3470 ng·h/mL | AUC(0-inf) [18]: 3770 ng·h/mL | Cmax [18]: 2710 ± 300 ng/mL | MRT [18]: 80.8 min | half-life [18]: 48 ± 14.7 min | AUC(0-t) [18]: 3450 ng·h/mL | Tmax [18]: 15 min | Tmax (blood, Group 1: vehicle solution of Tariquidar/Ko143 + LVFX 50 mg/kg, n=3): 15 min | Tmax (blood, Group 3: physiological saline alkalinized with NaOH (pH 9.0–9.2) + LVFX 50 mg/kg, n=3): 15 min | Tmax (brain ECF, Group 1: vehicle solution of Tariquidar/Ko143 + LVFX 50 mg/kg, n=3): 15 min | Tmax (brain ECF, Group 3: physiological saline alkalinized with NaOH (pH 9.0–9.2) + LVFX 50 mg/kg, n=3): 15 min | AUC(0-inf) [19]: 4550 ng·h/mL | Cmax [19]: 3650 ± 270 ng/mL | MRT [19]: 75.8 min | half-life [19]: 44.1 ± 11.8 min | AUC(0-t) [19]: 4190 ng·h/mL | Tmax [19]: 15 min | difference in LVFX concentration (and AUC value) between brain ECF and CSF (with or without treatment with transporter inhibitors): < 3 fold
